# Source: article PMC10096453, “One-Pot Synthesis and Evaluation of Antioxidative Stress and Anticancer Properties of an Active Chromone Derivative” (Molecules, 2023)
# Read-outs that look alike come from different tables or passages of the source.
# How the values were obtained:
# [1] = ABTS radical cation scavenging assay; assay type: biochemical
# Source text: (§1) Three in vitro antioxidant assays (DPPH, FRAP, and ABTS) were utilized to evaluate the antioxidant property of the synthesized compounds. The DPPH (α, α-diphenyl-β-picrylhydrazyl) assay is the well-known approach to determine antioxidant activity using a stable free radical DPPH, measure the absorbance change, and calculate the absorbance change in the percentage of scavenging activity. […] For example, the ferric-tripyridyltriazine (Fe^3+-TPTZ, colorless) complex is reduced to ferrous tripyridyltriazine (Fe^2+-TPTZ) at low pH and introduces a blue color with maximum absorption at 593 nm. The change in absorbance is related to antioxidant activity. However, a significant limitation of these in vitro tests is the non-physiological measurement conditions (no enzymatic condition and no transition metal ion chelating activity); therefore, the results obtained may not reflect the antioxidant activity of the source material under the biological conditions that exist in humans and animals. The ABTS assay involves a more drastic radical that is chemically produced. The use of ABTS for antioxidant activity determination of hydrophilic and lipophilic pure compounds has attracted interest due to its solubility in organic and aqueous media and stability in a wide pH range [31].
# The ABTS assay was prepared by reaction of 5 mL of a 7 mM aqueous ABTS (2,2′-azino-bis (3-ethylbenzthiazoline-6-sulphonic acid) solution and 2.45 mM potassium persulfate solution (K2S2O8). After preparation and storage in the dark for 16 h, the radical cation solution was further diluted in ethanol to absorb about 0.7 at 734 nm. Trolox and test sample solutions were prepared in stock solution with DMSO and diluted with ethanol. A solution of 100 μL of the sample was mixed with 100 μL of the ABTS reagent in a 96-well plate. The mixture was shaken in a dark place for 10 min and incubated at 37 °C for 20 min, and the absorbance was determined at 734 nm. Absorbance determinations were recorded immediately and not more than 1 h after adding the reagent. The solution without the sample was used as a blank. All the determinations were made in triplicate. The sample’s scavenging percentage was calculated from this equation: scavenging percentage = (Absorbance control − Absorbance sample) × 100/Absorbance control. EC50 values were calculated from the relationship curve of %scavenging versus sample concentration.
# [2] = DPPH radical scavenging assay; assay type: biochemical; set-up: DPPH517nm % SA ± SD: dose or concentration left out as unconfirmed; conditions: for DPPH517nm % SA ± SD: mean of three measurements
# Source text: as §1
# The DPPH method was followed and modified from a previous study. Trolox was used as a reference. The DPPH stock solution at a concentration of 0.625 mM was prepared in 50% ethanol and kept at 4 °C in the dark. On the day of the experiment, 0.208 mM fresh DPPH working solution was freshly prepared by further diluting with 50% ethanol. […] Each reaction was carried out in a 96-well plate, and 100 μL of test preparation and DPPH solution were added. The 96-well plate was then shaken well for 10 min and kept in the dark at room temperature for 20 min, and the absorbance was recorded at 515–517 nm. According to the method described, delocalization also results in a deep violet color and is quantified as a percentage of scavenging activity. % scavenging activity (SA) = 100 × (Asample − Ablank)/(Acontrol − Ablank)(1) where Acontrol and Asample are the absorbances of the test DPPH without and with a sample, respectively. Ablank is the absorbance of the solvent used. The EC50 values were calculated from the relationship curve of %SA versus sample concentration. The experiment was carried out at least in triplicate.
# [3] = FRAP (ferric reducing antioxidant power) assay; assay type: biochemical; conditions: Trolox equivalent
# Source text: as §1
# The FRAP assay is a method for assessing antioxidant power. Briefly, the FRAP reagent was prepared from acetate buffer pH 3.6, 10 mM TPTZ solution in 40 mM HCl and 20 mM FeCl3.6 H2O in relative proportions of 10:1:1, v/v, respectively. The FRAP reagent was freshly prepared daily. A solution of 5 μL of the sample (3–300 μM, approx.) was mixed with 180 μL of the FRAP reagent in a 96-well plate. The mixture was shaken in the dark for 10 min and incubated at 37 °C for 20 min, and the absorbance was determined at 593 nm. The solution without the sample was used as a blank. All determinations were made in triplicate. Trolox was used as a standard antioxidant and plot the calibration curve between absorbance and concentration. Quercetin was applied as the reference compound. The FRAP values were calculated by comparing the absorbance change in the test sample and represented in μM of Trolox equivalent per μM of sample.
# HEK293 cells = test: MTT cytotoxicity assay, HEK293 cells; assay type: cell-based; conditions: 24 and 48 h treatment
# Method: (§2) HEK293, HACAT, and HeLa cells were grown in modified Eagles’ minimum essential medium (EMEM, Gibco) with 10% fetal bovine serum (FBS, Gibco), 1% of 100 U/mL streptomycin and 100 U/mL penicillin (Gibco). Cells were seeded in culture flasks and maintained in an incubator at 37 °C in a humidified atmosphere with 5% CO2. After reaching 80–90% of confluence, cells were detached by incubation with 0.25% trypsin-0.2% EDTA (Gibco) for 5 min and plated for experiments.
# (§3) This study examined cell cultures of HEK293, HACAT, and HeLa cells. The cytotoxicity of the test samples was carried out by the MTT (3-(4,5-dimethylthiazol-2-yl)-2,5-diphenyltetrazolium bromide) assay. The cells were seeded in 96-well microliter plates (2.0 × 10^4 cells/well). Stock solutions of the test compounds were prepared in DMSO. After 24 h, cells were treated with different concentrations of samples and diluted with media to obtain the final desired concentration. The treated cells were then incubated at 37 °C and 5% CO2 for 24 and 48 h. After incubation, the medium was replaced with 0.05% w/v of MTT solution in PBS and further incubated for 3 h. The solution was then discarded and DMSO was added to dissolve the formed formazan crystals. Each well’s absorbance (A) was measured at 570 nm using a microplate reader (FLUOstar Omega^TM, BMG Labtech, Ortenberg, Germany). All experiments were carried out in triplicate and repeated for at least three experiments.
# [4] = MTT cytotoxicity assay, HEK293 cells; assay type: cell-based; conditions: human, HEK293 cells, 100 μM; for viability at 24 h, 100 µM: read-out: % Viability ± SD (at 100 μM) HEK293 24 h; for viability at 48 h, 100 µM: read-out: % Viability ± SD (at 100 μM) HEK293 48 h
# Method: as §2, §3
# HeLa cell = test: MTT anticancer activity assay, HeLa cells; assay type: cell-based
# Method: as §2, §3
# [5] = MTT cytotoxicity assay, HACAT cells; assay type: cell-based; conditions: human; for viability at 24 h, 100 µM: read-out: % Viability ± SD (at 100 μM) HACAT 24 h; for viability at 48 h, 100 µM: read-out: % Viability ± SD (at 100 μM) HACAT 48 h
# Method: as §2, §3
# HeLa cells = test: Cellular ROS assay (ROS deep red fluorescence kit); assay type: cell-based; conditions: pretreatment 50, 100, 150 μM for 24 h; 5 mM H2O2 30 min
# Method: ROS is the main contributor to cell death. These reactive molecules are formed by several mechanisms and can be detected by various techniques. In order to investigate the level of cellular ROS after treatment with compounds, the accumulation of intracellular ROS in cells was quantified with a cellular ROS assay kit (ab186029, Abcam, Boston, USA) fluorescence assay. After pretreatment with 2f, 2j, and 3i at 50, 100, and 150 μM for 24 h, cell stress was induced with 5 mM hydrogen peroxide for 30 min. The cells in each well were collected and resuspended with a serum-free medium containing the ROS red probe. Subsequently, cells were incubated at 37 °C for 30 min in the dark, and fluorescence was read at Ex/Em = 650/675 nm.
# In this study, Hela cells were seeded overnight at 20,000 cells/90 µL/well in a black wall/clear bottom 96-well plate. Cells included those untreated (control) and those pre-treated with compounds at various concentrations (50, 100, 150 μM) for 24 h. The ROS deep red assay solution (100 μL/well) was added and incubated at 5% CO2, 37 °C incubator for 30 min. The fluorescence signal was monitored at Ex/Em = 650/675 nm (cut off = 665 nm) with bottom read mode within 30 min (cellular ROS assay kit, ab186029, abcam).
# [6] = Homo sapiens, 24 h, read-out: % Viability ± SD (at 100 μM) HeLa 24 h
# [7] = Homo sapiens, 48 h, read-out: % Viability ± SD (at 100 μM) HeLa 48 h
SMILES,ABTS734nm % Scavenging at 500 µM [1] [%],melting point [°C],DPPH517nm % SA ± SD [2] [%],FRAP593nm Value ± SD (TE) [3],Toxicity in HEK293 cells (HEK293 cells),"viability at 24 h, 100 µM [4] [%]","viability at 48 h, 100 µM [4] [%]",IC50 (HeLa cell; 24 h) [µM],"Anticancer activity on cervical cancer cells (HeLa cell; HeLa, 24 h)","IC50 (HeLa cell; Homo sapiens, HeLa, 24 h) [µM]",viability at 100 µM (HeLa cell; [6]) [%],viability at 100 µM (HeLa cell; [7]) [%],"viability at 24 h, 100 µM [5] [%]","viability at 48 h, 100 µM [5] [%]",EC50 ([1]; read-out: ABTS734nm EC50 ± SD) [µM],EC50 ([2]; read-out: DPPH517nm EC50 ± SD) [µM],Cellular ROS fluorescence intensity vs H2O2-treated cells (HeLa cells)
"O=C(c1ccc([N+](=O)[O-])cc1)c1c(-c2ccc([N+](=O)[O-])cc2)oc2cc(O)ccc2c1=O [2i, 7-hydroxy-3-(4-nitrobenzoyl)-2-(4-nitrophenyl)-4H-chromen-4-one]",8.52 ± 3.89,290 to 291,13.75 ± 3.31,0.08 ± 0.006 µM Trolox/1 µM of Synthesized Compounds,more toxic,65.1 ± 1.21,41.2 ± 2.11,34.9 ± 2.41,contained anticancer activity,34.9,38.7 ± 5.22,12.5 ± 1.45,59.8 ± 5.77,27.5 ± 1.24,,,
"CC(=O)c1ccc(O)c(O)c1OC(=O)c1ccccc1 [3i, 6-Acetyl-2,3-dihydroxyphenyl benzoate]",78.80 ± 1.14,,90.55 ± 0.36,3.16 ± 0.350 µM Trolox/1 µM of Synthesized Compounds,,110 ± 1.2,107 ± 4.18,,,,99.9 ± 4.19,37.1 ± 1.96,104.8 ± 0.88,84.9 ± 3.05,13.9 ± 0.74,59 ± 11.2,decreased significantly
"CC(=O)c1ccc(O)cc1OC(=O)c1ccco1 [compound 4, 2-Acetyl-5-hydroxyphenyl furan-2-carboxylate]",14.51 ± 1.94,122 to 124,0.99 ± 0.71,0.00 ± 0.001 µM Trolox/1 µM of Synthesized Compounds,,97.99 ± 0.4,108 ± 2.84,,,,86.1 ± 3.24,91.07 ± 0.65,85.7 ± 5.6,72.2 ± 1.81,,,
